# Source: publication PMC8067754, “Active Transport of Hepatotoxic Pyrrolizidine Alkaloids in HepaRG Cells” (International Journal of Molecular Sciences, 2021)
# Where “and” joins values, the source holds several entries; their conditions need not be identical. Equal values may be shown once.
# Tested on: HepaRG cells
# Test: Time-dependent PA depletion and PANO formation in cell culture medium of HepaRG cells at 37 °C and 4 °C (LC-MS/MS)
# Conditions: for PA content in cell culture medium, Mean [%]: 700 nM PA; for PA content in cell culture medium, Mean [%] / PANO content in cell culture medium, Mean [%]: percent of initial PA concentration; for PANO formation in cell culture medium / PANO content in cell culture medium, Mean [%]: 700 nM parent PA; for uptake and toxicity (grading): Figure 2a, toxicity grading with ref 41
# Method: In order to measure time-dependent depletion of PA and PANO content in cell culture medium, cells were seeded at a density of 0.2 × 10^6 cells per well in a 6-well plate and cultivated as described in Section 4.2. After four weeks of cultivation, cells were adapted to serum-free medium and medium substituted with insulin, transferrin, selenium (ITS) serum extender (Capricorn Scientific, Ebsdorfergrund, Germany) 48 h prior to PA incubation for optimal LC-MS/MS measurements. […] Samples were taken after 2 h, 4 h, 8 h and 24 h.
# Briefly, chromatographic separation of PA/PANO analytes was achieved on a 50 × 2.1 mm Kinetex ™ 2.6 μm CoreShell EVO C18 100 Å column protected by a SecurityGuard ™ ULTRA EVO C 18 2.1 mm guard column (both Phenomenex, Aschaffenburg, Germany) at a flow rate of 0.4 mL/min on a Shimadzu high performance liquid chromatography (HPLC) apparatus (LC-20AB, SIL-20AC HT, CTO-20AC, CBM-20A, Duisburg, Germany) coupled to an API4000 triple quadrupole MS (Sciex, Darmstadt, Germany). The following MS parameters were used for measurements in positive electrospray ionisation (ESI+) mode: ionisation voltage 2500 V, nebuliser gas 50 psi, heating gas 50 psi, curtain gas 30 psi, temperature 600 °C, collision gas level 7. The substance specific parameters are summarized in Kaltner et al. 2019 [79].
molecule,measurement,setting,value
"C/C=C1/C[C@@H](C)[C@@](C)(O)C(=O)OC/C2=C/CN(C)CC[C@@H](OC1=O)C2=O [Senkirkine, senkirkine]","PA content in cell culture medium, Mean [%]","HepaRG, 4 °C (cold), 8h",116.261%
same,"PA content in cell culture medium, Mean [%]","HepaRG, 4 °C (cold), 24h",100.349%
same,"PA content in cell culture medium, Mean [%]","HepaRG, 37 °C (warm), 24h",51.3803%
same,PANO formation in cell culture medium,"HepaRG, 37 °C, up to 24 h",did not form PANOs
same,uptake and toxicity (grading),HepaRG,medium
same,"PA in medium, Mean [%]","cold, 0h",100%
same,"PA in medium, single replicates (repl.)","cold, 0h",100%
same,"PA in medium, single replicates (repl.)","cold, 2h",96.9078%
same,"PA in medium, single replicates (repl.)","cold, 4h",94.744% and 91.9958%
same,"PA in medium, Mean [%]","cold, 8h",99.7692%
same,"PA in medium, single replicates (repl.)","cold, 8h",96.8217%
same,"PA in medium, Mean [%]","cold, 24h",86.0777%
same,"PA in medium, single replicates (repl.)","cold, 24h",79.1115%
same,"PA in medium, Mean [%]","warm, 0h",100%
same,"PA in medium, single replicates (repl.)","warm, 0h",100%
same,"PA in medium, Mean [%]","warm, 2h",96.897%
same,"PA in medium, single replicates (repl.)","warm, 2h",86.8159% and 96.0701%
same,"PA in medium, Mean [%]","warm, 4h",92.4068%
same,"PA in medium, single replicates (repl.)","warm, 4h",82.3204% and 92.3164%
same,"PA in medium, Mean [%]","warm, 8h",78.7411%
same,"PA in medium, single replicates (repl.)","warm, 8h",72.1889% and 78.0729% and 85.9614%
same,"PA in medium, Mean [%]","warm, 24h",45.8528%
same,"PA in medium, single replicates (repl.)","warm, 24h",40.9466% and 44.2184% and 52.3933%
intermedine,"PA content in cell culture medium, Mean [%]","HepaRG, 4 °C (cold), 0h",107.988%
same,"PA content in cell culture medium, Mean [%]","HepaRG, 4 °C (cold), 2h",103.883%
same,"PA content in cell culture medium, Mean [%]","HepaRG, 4 °C (cold), 4h",102.163%
same,"PA content in cell culture medium, Mean [%]","HepaRG, 4 °C (cold), 8h",103.746%
same,"PA content in cell culture medium, Mean [%]","HepaRG, 4 °C (cold), 24h",100.748%
same,"PA content in cell culture medium, Mean [%]","HepaRG, 37 °C (warm), 0h",108.544%
same,"PA content in cell culture medium, Mean [%]","HepaRG, 37 °C (warm), 2h",103.044%
same,"PA content in cell culture medium, Mean [%]","HepaRG, 37 °C (warm), 4h",97.3218%
same,"PA content in cell culture medium, Mean [%]","HepaRG, 37 °C (warm), 8h",97.4673%
same,"PA content in cell culture medium, Mean [%]","HepaRG, 37 °C (warm), 24h",100.568%
same,"PANO content in cell culture medium, Mean [%]","HepaRG, 4 °C (cold), 0h",0%
same,"PANO content in cell culture medium, Mean [%]","HepaRG, 4 °C (cold), 2h",0.06406%
same,"PANO content in cell culture medium, Mean [%]","HepaRG, 4 °C (cold), 4h",0.04788%
same,"PANO content in cell culture medium, Mean [%]","HepaRG, 4 °C (cold), 8h",0.07456%
same,"PANO content in cell culture medium, Mean [%]","HepaRG, 4 °C (cold), 24h",0.022%
same,"PANO content in cell culture medium, Mean [%]","HepaRG, 37 °C (warm), 0h",0%
same,"PANO content in cell culture medium, Mean [%]","HepaRG, 37 °C (warm), 2h",0.04194%
same,"PANO content in cell culture medium, Mean [%]","HepaRG, 37 °C (warm), 4h",0.01862%
same,"PANO content in cell culture medium, Mean [%]","HepaRG, 37 °C (warm), 8h",0.0065%
same,"PANO content in cell culture medium, Mean [%]","HepaRG, 37 °C (warm), 24h",0.0275%
same,reduction of PA content in the supernatant,"HepaRG, 37 °C, after 24 h, 700 nM",only little reduction
same,"PA in medium, Mean [%]","cold, 0h",100%
same,"PA in medium, single replicates (repl.)","cold, 0h",100%
same,"PANO in medium, Mean [%]","cold, 0h",0%
same,"PANO in medium, single replicates (repl.)","cold, 0h",0%
same,"PA in medium, Mean [%]","cold, 2h",96.2366%
same,"PA in medium, single replicates (repl.)","cold, 2h",96.0144% and 91.6565% and 102.06% and 95.215%
same,"PANO in medium, Mean [%]","cold, 2h",0.05112%
same,"PANO in medium, single replicates (repl.)","cold, 2h",0.03% and 0.05295% and 0.03688% and 0.08463%
same,"PA in medium, Mean [%]","cold, 4h",94.7318%
same,"PA in medium, single replicates (repl.)","cold, 4h",93.7752% and 93.3154% and 101.161% and 90.6753%
same,"PANO in medium, Mean [%]","cold, 4h",0.03748%
same,"PANO in medium, single replicates (repl.)","cold, 4h",0.02966% and 0.02637% and 0% and 0.09388%
same,"PA in medium, Mean [%]","cold, 8h",96.1713%
same,"PA in medium, single replicates (repl.)","cold, 8h",95.8013% and 89.4137% and 105.78% and 93.6906%
same,"PANO in medium, Mean [%]","cold, 8h",0.05989%
same,"PANO in medium, single replicates (repl.)","cold, 8h",0.03944% and 0.1014% and 0% and 0.09868%
same,"PA in medium, Mean [%]","cold, 24h",93.3405%
same,"PA in medium, single replicates (repl.)","cold, 24h",92.0698% and 90.9944% and 99.8071% and 90.4909%
same,"PANO in medium, Mean [%]","cold, 24h",0.01524%
same,"PANO in medium, single replicates (repl.)","cold, 24h",0.001348% and 0% (2×) and 0.05962%
same,"PA in medium, Mean [%]","warm, 0h",100%
same,"PA in medium, single replicates (repl.)","warm, 0h",100%
same,"PANO in medium, Mean [%]","warm, 0h",0%
same,"PANO in medium, single replicates (repl.)","warm, 0h",0%
same,"PA in medium, Mean [%]","warm, 2h",94.9033%
same,"PA in medium, single replicates (repl.)","warm, 2h",93.3617% and 94.7726% and 98.2992% and 93.1796%
same,"PANO in medium, Mean [%]","warm, 2h",0.03999%
same,"PANO in medium, single replicates (repl.)","warm, 2h",0.003057% and 0.04704% and 0.1099% and 0%
same,"PA in medium, Mean [%]","warm, 4h",89.9787%
same,"PA in medium, single replicates (repl.)","warm, 4h",93.5042% and 95.5972% and 80.8797% and 89.9336%
same,"PANO in medium, Mean [%]","warm, 4h",0.01797%
same,"PANO in medium, single replicates (repl.)","warm, 4h",0% (2×) and 0.07092% and 0.000941%
same,"PA in medium, Mean [%]","warm, 8h",90.1345%
same,"PA in medium, single replicates (repl.)","warm, 8h",94.7528% and 91.6017% and 83.3876% and 90.7959%
same,"PANO in medium, Mean [%]","warm, 8h",0.006117%
same,"PANO in medium, single replicates (repl.)","warm, 8h",0% (3×) and 0.02447%
same,"PA in medium, Mean [%]","warm, 24h",92.1206%
same,"PA in medium, single replicates (repl.)","warm, 24h",92.1111% and 85.5289% and 89.7263% and 101.116%
same,"PANO in medium, Mean [%]","warm, 24h",0.02621%
same,"PANO in medium, single replicates (repl.)","warm, 24h",0% (2×) and 0.05428% and 0.05058%
C/C=C1/C[C@@H](C)[C@@](C)(O)C(=O)OCC2=CC[N+]3([O-])CC[C@@H](OC1=O)[C@@H]23 (stereo partly drawn) [senecionine N-oxide],"PANO formed in cold-incubated cells, of the applied mother compound","HepaRG, 4 °C, 700 nM senecionine, up to 24 h, Figure 2d",< 1%
same,PANO formation in cell culture medium,"HepaRG, 37 °C, up to 24 h",increased with time
"C/C=C(/C)C(=O)O[C@@H]1CCN2CC=C(COC(=O)[C@@](O)([C@H](C)O)C(C)(C)O)[C@H]12 [Echimidine, echimidine]","PA content in cell culture medium, Mean [%]","HepaRG, 4 °C (cold), 4h",98.8433%
same,"PA content in cell culture medium, Mean [%]","HepaRG, 4 °C (cold), 24h",89.3074%
same,"PA content in cell culture medium, Mean [%]","HepaRG, 37 °C (warm), 2h",85.2823%
same,"PA content in cell culture medium, Mean [%]","HepaRG, 37 °C (warm), 4h",68.4318%
same,"PA content in cell culture medium, Mean [%]","HepaRG, 37 °C (warm), 8h",40.2531%
same,"PA content in cell culture medium, Mean [%]","HepaRG, 37 °C (warm), 24h",3.384%
same,uptake and toxicity (grading),HepaRG,medium
same,"PA in medium, Mean [%]","cold, 0h",100%
same,"PA in medium, single replicates (repl.)","cold, 0h",100%
same,"PA in medium, Mean [%]","cold, 2h",97.014%
same,"PA in medium, single replicates (repl.)","cold, 2h",86.5736%
same,"PA in medium, Mean [%]","cold, 4h",92.1476%
same,"PA in medium, single replicates (repl.)","cold, 4h",83.0216% and 84.3494%
same,"PA in medium, Mean [%]","cold, 8h",94.8515%
same,"PA in medium, single replicates (repl.)","cold, 8h",82.9788% and 110.397%
same,"PA in medium, Mean [%]","cold, 24h",82.2598%
same,"PA in medium, single replicates (repl.)","cold, 24h",57.2342% and 76.5517%
same,"PA in medium, Mean [%]","warm, 0h",100%
same,"PA in medium, single replicates (repl.)","warm, 0h",100%
same,"PA in medium, Mean [%]","warm, 2h",80.9264%
same,"PA in medium, single replicates (repl.)","warm, 2h",77.0539% and 95.3255%
same,"PA in medium, Mean [%]","warm, 4h",64.0995%
same,"PA in medium, single replicates (repl.)","warm, 4h",50.2783% and 58.3297% and 83.6904%
same,"PA in medium, Mean [%]","warm, 8h",36.9411%
same,"PA in medium, single replicates (repl.)","warm, 8h",23.0433% and 32.0944% and 55.6854%
same,"PA in medium, Mean [%]","warm, 24h",2.921%
same,"PA in medium, single replicates (repl.)","warm, 24h",0.7358% and 1.728% and 6.298%
C/C=C(/C)C(=O)O[C@@H]1CC[N+]2([O-])CC=C(COC(=O)[C@@](O)([C@H](C)O)C(C)(C)O)[C@H]12 (stereo partly drawn) [echimidine N-oxide],PANO formation in cell culture medium,"HepaRG, 37 °C, up to 24 h",increased with time
